For two compounds, mass density results are on record in the NIST ThermoML archive (doi:10.1016/j.jct.2003.09.010).

The data set is described as follows: mn = molality of the nth substance listed, in mol/kg. The note with it: 298.15 K, 101 kPa, Liquid.

Numbers after ± are expanded uncertainties.

Consider `CCCCCCCCCCCCCCCC[N+](C)(C)C.[Br-]` [N,N,N-trimethyl-1-hexadecanaminium bromide] + O, for which, for the setting “m1 = 1”, the mass density is reported as 1004.43 ± 0.46 kg/m3.
For `CCCCCCCCCCCCOS(=O)(=O)[O-].[Na+]` [sodium dodecyl sulfate] + O, the mass density is 999.133 ± 0.27 kg/m3 [middle of 5 runs] (m1 = 0.05), 1014.57 ± 0.3 kg/m3 [middle of 5 runs] (m1 = 0.5) and 1027.43 ± 0.33 kg/m3 [middle of 7 runs] (m1 = 1).

One may read the mass density as the mass of a sample divided by its volume.
